{"source": "BindingDB's records for doi:10.1021/acs.jmedchem.7b00882", "about": "(The University of Queensland, 2018)", "key": {"[1]": {"assay": "Inhibition of human serum C1s-mediated lysis of rabbit Ab-sensitized sheep erythrocytes after 60 mins"}, "[2]": {"assay": "Inhibition of factor D in […]-activated rat serum assessed as decrease in human erythrocyte lysis"}, "[3]": {"assay": "Inhibition of factor D in […]-activated human serum assessed as decrease in human erythrocyte lysis"}, "[4]": {"assay": "Inhibition of C9 binding to C5b678 in […] activated human serum assessed as suppression of human erythrocyte lysis after 1 hr by ELISA"}, "[5]": {"assay": "Inhibition of human serum C2-mediated lysis of antibody-sensitized sheep red blood cells after 30 mins by UV-Vis spectrophotometric method"}}, "note": "Peptide text beside a SMILES is read from it.", "data": [{"smiles": "N=C(N)c1cc2ccc(OC(=O)c3cccs3)cc2s1", "values": [{"measurement": "IC50", "setting": "[1]", "value": 46, "unit": "nM"}]}, {"smiles": "CC(=O)Oc1ccc(Cc2ccc(OC(C)=O)c(C(=O)O)c2)cc1C(=O)O", "values": [{"measurement": "IC50", "setting": "[2]", "value": 100, "unit": "nM"}, {"measurement": "IC50", "setting": "[3]", "value": 100, "unit": "nM"}]}, {"smiles": "CC(=O)Oc1ccc(-c2ccc(OC(C)=O)c(C(=O)O)c2)cc1C(=O)O", "values": [{"measurement": "IC50", "setting": "[2]", "value": 100, "unit": "nM"}, {"measurement": "IC50", "setting": "[3]", "value": 100, "unit": "nM"}]}, {"smiles": "O=C(O)C1=C/C(=C\\c2cc(C(c3ccc(O)c(C(=O)O)c3)c3ccc(O)c(C(=O)O)c3)cc(C(=O)O)c2O)C=CC1=O", "values": [{"measurement": "IC50", "setting": "[4]", "value": 500, "unit": "nM"}]}, {"smiles": "O=C(O)C1=C/C(=C(/c2ccc(O)c(C(=O)O)c2)c2cc(Cc3cc(C(c4ccc(O)c(C(=O)O)c4)c4ccc(O)c(C(=O)O)c4)cc(C(=O)O)c3O)cc(C(=O)O)c2O)C=CC1=O", "values": [{"measurement": "IC50", "setting": "[4]", "value": 500, "unit": "nM"}]}, {"smiles": "CC(=O)N[C@@H](CCCNC(=N)N)C(=O)N[C@@H](CC(C)C)C(=O)N[C@@H](CC(C)C)C(=O)N[C@@H](CC(C)C)C(=O)N[C@@H](C)C(=O)N[C@H](C=O)CCCNC(=N)N", "note": "(Ac-RLLLAR-aldehyde)", "values": [{"measurement": "IC50", "setting": "[5]", "value": 28000, "unit": "nM"}]}, {"smiles": "O=C(O)C1=CC(=C(c2ccc(O)c(C(=O)O)c2)c2ccc(O)c(C(=O)O)c2)C=CC1=O", "note": "[MLS002153482]", "values": [{"measurement": "IC50", "setting": "[4]", "value": 500, "unit": "nM"}]}]}
